According to patent US5500358A, “Antibody catalysis of cyclohexadienone rearrangments” (The Scripps Research Institute, priority 1994, dated 1996):

Test system: catalytic monoclonal antibody 62C7 (anti-13.3), secreted by hybridoma 62C7, ATCC HB11703
Test: Antibody-catalyzed dienone-phenol rearrangement of 7 to 8, product formation followed by reverse-phase HPLC
Format: biochemical, Balb/c mice
Procedure: The KLH conjugates of haptens 13.3, 13.4, and 13.5 were then employed to inoculate Balb/c mice and antibodies were generated by standard protocols. (G. Kohler et al. Nature (1975), vol. 265, page 495.) Monoclonal antibodies were purified from ascites fluid by anion exchange chromatography and assayed against substrate 7 for production of the phenol product 8. Fourteen anti-13.3, twenty two anti-13.4, and twenty one anti-13.5 antibodies were assayed for catalysis of the rearrangement reaction converting dienone substrate 7 to phenol product 8. […] Assay condition employed […] in 100 mM NaCl, 50 mM of either bistris(bis(hydroxyethyl)-tris(hydroxymethyl)aminomethane) or 1,3-bis[tris (hydroxymethyl)aminopropane at 37° C. Product formation was followed by reverse-phase HPLC (Vydac C-18 218TP54 column (0.45×22 cm) at a flow rate of 1.5 milliliters/minute using 28% CH3 CN and 72% H2 O+0.1% CF3 COOH. Retention time tR for substrate 7 was 5.02 minutes. Retention time tR for product 8 was 7.14 minutes. The pD (98%) D2 O) values were obtained by adding 0.4 to the pH-electrode reading. […] Antibody 62C7 (anti-13.3) was characterized in detail.
FIG. 3 illustrates the pH-profile of the rearrangement reaction in the presence of catalytic antibody 62C7 (anti-13.3) and without. Background rates are determined in H2 O and in D2 O. The lines are caluclated from the following equations respectively:
kcat =kcat °+kcatH -[H3 O^30 ]^0.92 ;
kH2O =k°+kH +[H3 O^30 ]; kD2O
Accordingly, FIG. 3 illustrates both the antibody 62C7 catalyzed and the background reactions proceed via a hydronium ion catalyzed pathway, viz. kcatH+ =0.176/Mole second, H+ =1.51×10^-3 /Mole second. […] This is consistent with pre-equilibrium protonation of substrate 7 to form a first intermediate 10. This reaction probably reflects the spontaneous rearrangement of substrate 7 to the conjugate base of a second intermediate 12. This rearrangement reaction probably also occurs when substrate 7 is complexed with anti-13.3, i.e., second intermediate 12 is formed within the antibody complex. Importantly, a small inverse secondary isotope effect is observed in all cases at position C(3) of the dienone, viz., kcatH /kCatD =0.88 at pH=5.75, kH /kD =0.88-0.94 from pH=2.95 to 9.54. […] Accordingly, the rate determining step is the […]. (V. Vitullo et al., J. Am. Chem. Soc. (1974), vol. 94, page 3844.) Although this carbon hydrogen bond is ultimately broken to yield the product phenol 8, it is not involved in the rate determining step as this would have given rise to a large, normal isotope effect at that position.

[1] = pH 5.75, 37° C., 100 mM NaCl, 50 mM buffer

Work on `[2H]C1=C(C)C(=O)C(C)=C([2H])C1(Cc1ccc(C(=O)NCCO)cc1)OC` [Compound 7-d2] yielded a kcat (pH 5.75, 37° C.) of 1.37e-06 s⁻¹, a kcat / kuncat (pH 5.75, 37° C.) of 80 and a Km [1] of 770 µM.
With `COC1(Cc2ccc(C(=O)NCCO)cc2)C=C(C)C(=O)C(C)=C1` [Compound 7] the “kcatH+ (hydronium ion catalyzed pathway of the antibody reaction)” value (from pH-profile, FIG. 3) was 0.176 mol⁻¹ s⁻¹, the Km (in D2O, pD 7.07, 37° C.) was 1300 µM and the kcat (in D2O, pD 7.07, 37° C.) was 1.25e-06 s⁻¹. For the same compound, the kcat / kuncat (in D2O, pD 7.07, 37° C.) was 95, the kcat (pH 5.75, 37° C.) was 1.22e-06 s⁻¹ and the kcat / kuncat (pH 5.75, 37° C.) was 80. For the same compound, the Km [1] was 670 µM, the Km (pH 7.07, 37° C., H2O) was 1200 µM and the kcat (pH 7.07, 37° C., H2O) was 1.25e-06 s⁻¹. The kcat / kuncat (pH 7.07, 37° C., H2O) was 90 and the “kcatH /kCatD (secondary isotope effect at position C(3) of the dienone)” value (pH=5.75, 7 versus 7-d2) was 0.88.
